Read-outs that look alike come from different tables or passages of the source.

The text below walks through data of patent publication US11332438B2, “Creatine prodrugs, compositions and methods of use thereof” (Ultragenyx Pharmaceutical Inc., priority 2017, dated 2022).

For series [1] the following is noted: rcm bond, DCM, 50.0 °C.
The conditions of series [2]: rcm bond, Grubbs II, 50.0 °C.
Series [3] is described as follows: In vivo IV dosing in CrT KO mice: prodrug, d3-Cr and d3-Crn in brain (Table 5). As to the method:
A creatine prodrug is administered as an intravenous bolus injection to groups of three to six adult male CD1 mice at an appropriate creatine prodrug dose equivalent per kg body weight. Animals are conscious at the time of the experiment. Blood samples (0.3 mL) are obtained via a jugular vein cannula at intervals over 8 hours following IV dosing. Blood is processed into plasma, then the plasmais immediately frozen at −80° C. until analyzed by LC-MS/MS. Samples may also be taken form the CSF or other appropriate biological fluid. Brains were collected and flash frozen immediately in liquid nitrogen. Brains were homogenized in 100 mM KPI buffer with a cocktail of anti-proteases on the same day as the sample preparation required for LC-MS/MS analysis.
Several prodrugs with either free COOH group and ester linkage and macrocycles were selected for IV dosing in animal study to assess PK and d3-Cr release in brain in vivo. Prodrugs were IV dosed in CrT KO mice at 10, 15, or 25 mg/kg in animal studies. Mouse brain homogenates (MBH) were prepared from brains collected from mice after dosing. Levels of prodrug, d3-Cr and d3-Crn were quantified in brain and expressed in brain concentration (for macrocycle prodrugs) or AUC (for linear prodrugs) over time. Very few prodrugs were detected in MBH.

Series [4] can be described thus: Chemical stability in phosphate buffered saline (PBS). The series is classed as physicochemical. The conditions noted are these: Table 2A, 50 μM prodrug. Put shortly: (§1)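 Incubations used 50 μM compound at 37 °C in phosphate buffered saline, fasted simulated intestinal fluid without pancreatin, or fasted simulated gastric fluid without pepsin.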
Series [5] in a line: Chemical stability in simulated gastric fluid (SGF) without pepsin. The series is classed as physicochemical. The settings on record: Table 2A, 50 μM prodrug. Summed up:
as §1

The nature of series [6]: Chemical stability in simulated intestinal fluid (SIF) without pancreatin. The format is physicochemical. The conditions noted are these: Table 2A, 50 μM prodrug. As to the method:
Chemical stability of creatine prodrugs in phosphate buffered saline (PBS), simulated intestinal fluid (SIF) without pancreatin, simulated gastric fluid (SGF) without pepsin were determined by LC-UV, LC-CAD, LC-UV-CAD or LC-MS/MS as appropriate. Creatine prodrugs of the present disclosure (50 μM) were incubated at 37° C. according to described protocols and prodrug levels were compared between t=0, t=15, t=60, and t=120 mins by peak area ratio to determine the percentage remained at t=120 mins (2 h).
Protocol for PBS, SIF and SGF stability for screening:
Prodrugs (50 μM) were incubated in PBS, FaSSIF (Biorelevant) or FaSSGF (Biorelevant) at 37° C.

Series [7] can be described thus: Plasma stability, mouse plasma. The series is classed as in vitro ADME. The conditions noted are these: Table 2A, 37 °C, read-out: Plasma Stability Mouse t1/2. Summed up: (§2)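 Test article, 1 µM final (from 10% DMSO/water), incubated at 37 °C in plasma adjusted to pH 7.4 if needed; samples at 0, 2, 5, 15 and 30 min quenched with ice-cold 80% acetonitrile. Remaining compound by LC-MS/MS; half-life in minutes calculated.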

Series [8] is described as follows: Plasma stability, human plasma. The series is classed as in vitro ADME. The conditions noted are these: Table 2A, 37 °C, read-out: Plasma Stability Human t1/2. Put shortly: as §2
The nature of series [9]: Liver microsome stability, mouse. The series is classed as in vitro ADME. The conditions noted are these: liver microsomes, pH 7.4, Table 2A, read-out: Microsome Stability Mouse t1/2. Put shortly: (§3)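 Test compound incubated with mouse or human liver microsomes and NADPH in 0.1 M potassium phosphate, 1.0 mM EDTA, pH 7.4, with a 60-min no-NADPH control. Samples quenched with ACN containing internal standard at 0, 5, 10, 20, 30 and 60 min, then analysed by LC/MS.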

A short description of series [10]: Liver microsome stability, human. The series is classed as in vitro ADME. The conditions noted are these: liver microsomes, pH 7.4, Table 2A, read-out: Microsome Stability Human t1/2. Put shortly: as §3

The molecule `CC1CC=CCCCCCCCC(=O)NC(=NC(=O)OC(C)(C)C)N(C)CC(=O)O1` (centres unmarked) displayed a ring closure, isolated yield in [1] (from [2H]C([2H])([2H])N(CC(=O)OC(C)CC=C)C(=NC(=O)OC(C)(C)C)NC(=O)CCCCCCCC=C, 18-membered ring, Grubbs II, 2.0 h, 2 steps) of 53%.

Consider `[2H]C([2H])([2H])N(C(N)=NC(=O)OCc1ccccc1)N(CC(=O)O)C(=N)NC(=O)CCCCCC=C`, for which, in series [1] (the molecule shown is the open-chain precursor, 17-membered ring, Grubbs II (10 mol%), 2.4 mM), the ring closure, isolated yield was 33%.

Consider `[2H]C([2H])([2H])N1CC(=O)OC(C)(C)CC=CCCCCCCCC(=O)N/C1=N/C(=O)OCc1ccccc1`, for which, in series [2] (from [2H]C([2H])([2H])N(CC(=O)OC(C)(C)CC=C)/C(=N\C(=O)OCc1ccccc1)NC(=O)CCCCCCCC=C, dichloromethane, 2.0 mM), the ring closure, yield of all isomers is 79%.

Molecule `[2H]C([2H])([2H])N1CC(=O)OC(C)C=CCCCCCCCC(=O)N/C1=N/C(=O)OC(C)(C)C` (centres unmarked) gave a ring closure, yield of all isomers in [2] (from [2H]C([2H])([2H])N(CC(=O)OC(C)C=C)/C(=N\C(=O)OC(C)(C)C)NC(=O)CCCCCCCC=C, DCM, 2.28 mM) of 77%.

In [2] (from [2H]C([2H])([2H])N(CC(=O)OC(C=C)CC)/C(=N\C(=O)OC(C)(C)C)NC(=O)CCCCCCCC=C, DCM, 2.82 mM), `[2H]C([2H])([2H])N1CC(=O)OC(CC)/C=C/CCCCCCCC(=O)N/C1=N/C(=O)OC(C)(C)C` (centres unmarked) registered a ring closure, yield of all isomers of 86%.

`[2H]C([2H])([2H])N1CC(=O)OC2(CC/C=C/CCCCCC(=O)NC1=NC(=O)OCc1ccccc1)CCOC2` (centres unmarked): in series [2] (from [2H]C([2H])([2H])N(CC(=O)OC1(CCC=C)CCOC1)C(=NC(=O)OCc1ccccc1)NC(=O)CCCCCC=C, dichloromethane, 1.95 mM), the ring closure, yield of all isomers amounted to 78%.

Turning to `[2H]C([2H])([2H])N1CC(=O)OC2(CCC=CCCCCCC(=O)N/C1=N/C(=O)OCc1ccccc1)CCC2`, the ring closure, yield of all isomers in [2] (from [2H]C([2H])([2H])N(CC(=O)OC1(CCC=C)CCC1)/C(=N\C(=O)OCc1ccccc1)NC(=O)CCCCCC=C, dichloromethane, 2.4 mM) was determined as 33%.

`[2H]C([2H])([2H])N1CC(=O)OC2(CCC=CCCCCCC(=O)NC1=NC(=O)OCc1ccccc1)CCCC2`: the ring closure, yield of all isomers in series [2] (from [2H]C([2H])([2H])N(CC(=O)OC1(CCC=C)CCCC1)C(=NC(=O)OCc1ccccc1)NC(=O)CCCCCC=C, dichloromethane, 1.95 mM) was 84%.

With `[2H]C([2H])([2H])N1CC(=O)OCCCC/C=C\CCCCCCCC(=O)N/C1=N/C(=O)OC(C)(C)C`, the ring closure, isolated yield in [1] (from [2H]C([2H])([2H])N(CC(=O)OCCCCC=C)C(=NC(=O)OC(C)(C)C)NC(=O)CCCCCCCC=C, 20-membered ring, Grubbs II) is 90%.

The molecule `[2H]C([2H])([2H])N1CC(=O)OCCCCCCCC/C=C/CCCCCCCC(=O)N/C1=N/C(=O)OCc1ccccc1` displayed a ring closure, isolated yield in series [1] (from [2H]C([2H])([2H])N(CC(=O)OCCCCCCCCC=C)/C(=N\C(=O)OCc1ccccc1)NC(=O)CCCCCCCC=C, 24-membered ring, Grubbs II (10 mol%), 1.79 mM, 2.0 h) of 78%.

As to `[2H]C([2H])([2H])N1CC(=O)OCCCCCCCC/C=C/CCCCCCCC(=O)NC1=NC(=O)OCc1ccccc1`, the ring closure, yield of all isomers in [2] (from [2H]C([2H])([2H])N(CC(=O)OCCCCCCCCC=C)C(=NC(=O)OCc1ccccc1)NC(=O)CCCCCCCC=C, dichloromethane, 1.79 mM) amounted to 78%.

For `[2H]C([2H])([2H])N(CC(=O)[O-])C(=N)NC(=O)CCCCCCCCCC.[Na+]` [Compound 4], in series [3] (CrT KO mice, IV dosing), the “crossing of BBB (in words)” value is “did not seem to cross BBB”. The “AUClast d3-Cr in the brain” value in [3] (IV 10 mg/kg, CrT KO mouse brain, BQL d3-Cr = 13.7 ng/mL) is listed as “BQL”. Further, the “AUClast d3-Crn in the brain” value in series [3] (IV 10 mg/kg, CrT KO mouse brain, BQL d3-Crn = 1.5 ng/mL) is listed as “BQL”. Further, in [3] (IV 10 mg/kg, CrT KO mouse brain, BQL prodrug = 41.2 ng/mL), the “AUClast prodrug in the brain” value is “BQL”. The “Chemical Stability PBS % T0 at 2 hours at 37 °C.” value (shortened to “Chemical Stability PBS % T0”) in series [4] is on record as 69%. Besides, the “Chemical Stability SGF, no enzyme % T0 at 2 hours at 37 °C.” value (“Chemical Stability SGF, no enzyme % T0” for short) in series [5] is reported as 94%. In [6], the “Chemical Stability SIF, no enzyme % T0 at 2 hours at 37 °C.” value (shortened to “Chemical Stability SIF, no enzyme % T0”) was 61%.

With `[2H]C([2H])([2H])N(CC(=O)[O-])C(=N)NC(=O)CCC/C=C\C/C=C\C/C=C\C/C=C\CCCCC.[Na+]` [Compound 22], the half-life in series [7] is greater than 3 h; in series [8], 2.17 h. Moreover, in series [4], the “Chemical Stability PBS % T0” value is reported as 35%. Besides, the results for the half-life at 10 μM in series [9] and in series [10] were 0.15 h and 0.4 h, respectively. Also, in series [5], the “Chemical Stability SGF, no enzyme % T0” value was 30%. The “Chemical Stability SIF, no enzyme % T0” value in series [6] is reported as 86%.

As for `[2H]C([2H])([2H])N(CC(=O)[O-])C(=N)NC(=O)CCCCC/C=C\CCCCCCCCCC.[Li+]` [Compound 24], the half-life in [7] and in series [8] was greater than 3 h throughout. Moreover, in series [4], the “Chemical Stability PBS % T0” value is 150%. Moreover, the half-life at 10 μM is 1.37 h in [9] and 1.3 h in series [10]. Moreover, the “Chemical Stability SGF, no enzyme % T0” value in series [5] is on record as 39%. For the same molecule, the “Chemical Stability SIF, no enzyme % T0” value in series [6] was 74%.

In the case of `[2H]C([2H])([2H])N(CC(=O)OCC)C(=N)NC(=O)CCCCCCCCCCCC` [Compound 46], the half-life in series [7] and in series [8] was less than 0.0833 h each time. Moreover, in [4], the “Chemical Stability PBS % T0” value is recorded as 0%. The “Chemical Stability SGF, no enzyme % T0” value in series [5] was 111%. Besides, the “Chemical Stability SIF, no enzyme % T0” value in [6] was 45%.

In turn, “(Z)-tert-butyl-((E)-17-ethyl-4-trideuteriomethyl-2,7-dioxo-1-oxa-4,6-diazacycloheptadec-15-en-5-ylidene) carbamate” returned a ring closure, isolated yield in series [1] (17-membered ring, Grubbs II (20 mol%), 2.82 mM) of 86%.
